Among the data in a melting point compilation (Tetko et al.; mined from patent text by program, amines drawn as free bases though some values may be those of a salt) are melting point values, retold here.

The compound `CC(C)(C)NC(=O)[C@@H]1CC(=O)CN1C(=O)[C@@H](O)[C@H](Cc1ccccc1)NC(=O)[C@H](CC(N)=O)NC(=O)OCc1ccccc1` came in with a melting point of 116 to 120 °C. Turning to `COc1ccc2cc([C@H](C)C(=O)OCC3(C(SN=O)(C4CC4)C4CC4)CCN(C)CC3)ccc2c1`, the melting point is 88 °C. `O=C(Nc1ccc2ccc(Cl)cc2n1)c1ccccc1` registered a melting point of 133 °C. `N#CCCN1C(=O)C(O)N=C(c2ccccc2Cl)c2cc(Cl)ccc21` (stereo not given) registered a melting point of 198 to 202 °C. The figure for `OCCCc1cc(Cl)cc2nc(Cc3cccc(Cl)c3)oc12` is 87 to 89 °C. In turn, `COc1ccc(-c2cn(C)cc(-c3ccccc3)c2=O)cc1OC` returned a melting point of 154 to 157 °C. As for `Cc1cc2c(cc1C1=NNC(=O)CC1)NC(=O)C(C)O2` (stereo not given), the melting point is 252 to 254 °C.

On to `O=C(CC1CCC2(CC1)OCCO2)N1CCN(c2ccccn2)CC1`, for which the melting point fell in the range of 113 to 116 °C. Turning to `c1ccc(Oc2ccc(OCn3cnc4ccccc43)cc2)cc1`, the melting point worked out at 112 °C. For the compound `N#Cc1ccc(OCCO)c(C(N)=O)c1`, the melting point was 144 to 146 °C. The figure for `CCOc1ccc(C2=NN(C3CCN(S(=O)(=O)c4ccc(C)cc4)CC3)C(=O)[C@@H]3CC=CC[C@H]23)cc1OCC` is 99 to 101 °C; for `CC(C)(C)OC(=O)N1C(=O)O[C@@H](c2ccc(F)cc2)[C@H]1Cc1ccc(C(F)(F)F)cc1` (racemic) it is 155 to 156 °C. The figure for `COc1ccc(Cl)cc1C1(O)C(=O)Nc2ccc(C(F)(F)F)cc21` (stereo not given) is 218 to 220 °C; for `CC(=O)NC[C@H]1CN(c2ccc3c(c2)CS(=O)(=O)N3C)C(=O)O1` it is 84 to 86 °C. The compound `C=CCNc1cc(C)nc2cn[nH]c12` yielded a melting point of 172 to 174 °C. The figure for `COc1ccc(-n2nc(CBr)cc2-c2ccc(C)cc2)cc1` is 119 to 121 °C. In the case of `COc1cc(CCNC(=O)c2cccnc2)ccc1O`, the melting point lay in the range of 192 to 194 °C.

Take `Cc1nccn1-c1ccc(COc2cc(F)cc(C3(C(N)=S)CCOCC3)c2)cc1`: the melting point fell in the range of 167 to 170 °C. The figure for `CC(=O)Oc1c(C)c2c(-c3ccc(C(C)C)cc3)coc2c2ccccc12` is 118 to 119 °C; for `CC(C(=O)O)c1ccc(-c2ccc(OCc3nc4ccccc4s3)cc2)cc1` (stereo not given) it is 199 to 200 °C; for `Cc1nc(O)c(C(=O)O)cc1Cl` it is 291 to 294 °C. `Cc1cc(-c2cccnc2)cc2ccc(=O)[nH]c12` had a melting point of 236 °C. With `CCn1cc(C(=O)O)c(=O)cc1-c1cccnc1`, the melting point lay in the range of 209 to 210 °C. The value for `COc1ncc(Cc2n[nH]c(=O)c3ccccc23)cc1Br` was 227 to 228 °C; that for `CC(C)(C)c1cc(SC2(Sc3cc(C(C)(C)C)c(O)c(C(C)(C)C)c3)CCCCC2)cc(C(C)(C)C)c1O` was 195 to 197 °C; that for `N#CC1(c2ccccc2)CCC2(CC1)OCCO2` was 108 to 110 °C.

`CCOc1cc2c(cc1OCC)C(C(C#N)SCCCO)=NCC2` (stereo not given) had a melting point of 100 to 105 °C. For the compound `NC(=O)C(O)C1CC=CCC1` (stereo not given), the melting point was in the range of 139 to 141 °C. `N#Cc1ccc2c(c1)S(=O)(=O)c1ccc(N)cc1C=C2` registered a melting point of 321 to 324 °C. The value for `COc1cc(F)ccc1CCN1c2nc(-c3ccncn3)cc(=O)n2CCC1(C)C` was 196 to 198 °C. Regarding `COC1=CC=C(CN2CCN(CCCC(=O)c3ccc(F)cc3)CC2)C(F)C1=NNS(=O)(=O)c1ccc(C)cc1` (stereo not given), the melting point was 66 to 67 °C. On to `Cn1c(C(=O)C(C)(C)C)cc2cc(OCc3ccccc3)ccc21`, for which the melting point fell in the range of 101 to 103 °C. Compound `CN(C)CCCCNc1ncc2c(n1)-c1ccccc1C(c1cccc(Br)c1)C2` (stereo not given) gave a melting point of 115 to 117 °C. `C=CCN1CCCC1CNC(=O)c1cc(S(=O)(=O)NC)cc2c1OCCO2` (stereo not given) had a melting point of 101 to 102 °C. `Clc1cccc(-c2onc3ccc(Br)cc23)c1`: the melting point turned out to be 163 °C.

Regarding `O=c1c2c(Cl)cccc2nc(C(S)c2ncnc3[nH]cnc23)n1-c1ccccc1Cl` (stereo not given), the melting point is 234 °C.

In turn, `COC1CCc2c(Nc3ccc(C#N)cc3)ncnc21` (stereo not given) came in with a melting point of 167 to 169 °C. `COC(=O)C1CC(O)CN1C(=O)c1ccc(OC)cc1` (stereo not given) showed a melting point of 92 °C.

`CN(C(=O)OC(C)(C)C)[C@H]1CC[C@H](/C=C/CCl)CC1`: the melting point was 42.5 to 43.9 °C. The compound `C=CC(C)(C)CC(=O)C(=O)Nc1ccc2c(c1)C(=O)OC2` registered a melting point of 103 to 104 °C. The compound `Cc1cc(N)nc(CCc2nc3cc(-c4ccc(S(=O)(=O)N(C)C)cc4)cnc3[nH]2)c1` registered a melting point of 157 °C. The value for `CC12CCCCC1CCC1C2CCC2(C)C(C(O)c3ccccc3)CCC12` (stereo not given) was 129 to 130 °C.

The compound `CNc1ccnc2c1c(=O)n(C)c(=O)n2C` gave a melting point of 179 to 180 °C. `c1ccc(CNC2CN(C(c3ccccc3)c3ccccc3)C2)cc1`: the melting point was in the range of 73 to 75 °C. Regarding `COc1ccc2c(c1)c(CCO)c(C)n2-c1ccnc2cc(Cl)ccc12`, the melting point fell in the range of 143 to 145 °C. The value for `CCCCCCCCCCNc1c(Nc2ccc(CCCNC[C@H](O)COc3cccc4[nH]c5ccccc5c34)cc2)c(=O)c1=O` was 225 °C; that for `CCOCC(COCC)Oc1ccc(/C=C/C(=O)O)c(Oc2ncc(C(F)(F)F)cc2Cl)c1` was 62 to 63 °C; that for `O=C(NCc1ccccn1)Nc1cc(N2CC(Cc3ccccc3)CC2=O)ccn1` (stereo not given) was 215 to 220 °C. Compound `Cc1c[nH]c(=O)n(Cc2ccccc2)c1=O` came in with a melting point of 208 to 210 °C. The value for `Cc1cc(COc2ccc(C(=O)NC[C@@H](C(=O)NO)N3CCCCC3)cc2)c2ccccc2n1` was 190 °C; that for `COc1ccc(S(=O)(=O)Nc2ccccc2NC(=O)c2ccccn2)cc1` was 174 to 175 °C; that for `CN1CCC(Oc2c(F)c(F)c(F)c(F)c2F)(c2ccc(C(F)(F)F)cc2)CC1` was 45 to 48 °C.

Regarding `COC(=O)CCn1c(=O)n(CCN2CCN(c3ccccc3OC)CC2)c(=O)c2c(C)scc21`, the melting point lay in the range of 127 to 128 °C.

For the compound `O=S(=O)(NCCCO)c1ccc(Nc2nccc(-c3ccc(C(F)(F)F)cc3)n2)cc1`, the melting point was 204 to 205 °C. `CC(C)c1cccc(C(C)C)c1NC(=O)CC(=O)C(c1ccccc1)c1ccccc1` displayed a melting point of 153 to 155 °C. `CCCNC(=O)N1N=C(c2ccc(N)cc2)c2cc(Cl)ccc2CC1C` (stereo not given): the melting point fell in the range of 88 to 90 °C. In the case of `COc1ccc(C(=O)Nc2ccccc2)cc1NS(=O)(=O)c1ccccc1Cl`, the melting point is 107 to 109 °C. The value for `O=C1CNC(c2ccc([N+](=O)[O-])cc2)=NN1` was 284 to 286 °C; that for `COc1ccc2c(c1Br)CCC=C2C#N` was 108 to 109 °C; that for `CC1(C)C(=O)Nc2cc3[nH]c(-c4cnccn4)nc3cc21` was above 300 °C. `Cc1cccc(OCCOS(N)(=O)=O)c1`: the melting point fell in the range of 76 to 78 °C. `N#Cc1ccnc(N2CCOCC2)c1` registered a melting point of 135 to 136 °C. `Cc1noc(NC(=O)N2CCN(c3nccc(-c4ccc(F)cc4F)n3)CC2)c1C` had a melting point of 197 to 198 °C. Compound `COc1ccccc1CC(=O)c1c(O)c2cccnc2n(-c2ccccc2)c1=O` showed a melting point of 203 to 205 °C. The compound `Nc1nc2ccccc2c2c1nc1n2CCOC1` registered a melting point of 258 to 259 °C.

Turning to `N#CC1CCSc2[nH]c3ccccc3c21` (stereo not given), the melting point lay in the range of 125 to 126 °C. With `Nc1nc2ccc(CCN3CCC(Oc4ccccc4)CC3)cc2s1`, the melting point lay within 164 to 167 °C.

`CCCc1nc(C)c2c(=O)[nH]c(C)nn12`: the melting point is 228 to 231 °C.

In turn, `CC(C)(c1ccc2ncccc2c1)n1nnc2ccc(-c3ccc(C(=O)NC4CC4)c(F)c3)nc21` gave a melting point of 156 to 159 °C. Turning to `Cc1nc2nc(NCCN3CCC(Nc4nc5ccccc5n4Cc4ccc(F)cc4)CC3)ccc2[nH]1`, the melting point was found to be 202 °C. With `OCCNc1c(Br)cnc2cc(Cl)ccc12`, the melting point lay in the range of 169 to 170 °C.

Compound `Cc1ccc(NC(C)CC(=O)NC(=O)OC(C)(C)C)cc1` (stereo not given) returned a melting point of 84 to 85 °C. Consider `COC1=C(OC)C(=O)C(CCCCCCCCCC(=O)O)=C(C)C1=O`, for which the melting point fell in the range of 59 to 60 °C. The figure for `Cn1c(Cl)c(C=O)c2cc(Cl)ccc21` is 165 to 167 °C; for `CCOc1cc2ncc3c(N)nc(-c4ccc(Br)cc4)cc3c2cc1OCC` it is 230 to 235 °C; for `COc1cc2nc(N3CCN(C(=O)C=Cc4cc(OC)c(OC)c(OC)c4)CC3)nc(N)c2cc1OC` it is 141 to 146 °C. As for `O=C(Nc1ccc2[nH]ccc2c1)c1ccc(F)cc1`, the melting point fell in the range of 205 to 207 °C. The compound `CN(C)C(=O)Sc1ccc(CC#N)cc1` had a melting point of 97 to 99 °C. The value for `CC(C)Cc1cc2c(s1)C(C(=O)O)CC2=O` (stereo not given) was 80 °C; that for `COc1ccc(S(=O)(=O)C[N+](=O)[O-])c2ccccc12` was 109 to 110 °C. As for `N#Cc1c(Cc2ccccc2)n[nH]c1N`, the melting point lay within 183 to 185 °C. Regarding `CN(Cc1ccc(NC(=O)C2=Cc3cc(-c4cccnc4)ccc3OCC2)cc1)C1CCOCC1`, the melting point was in the range of 158 to 159 °C. Take `COc1cccc(CN2CCC(c3cc(-c4ccc(Cl)cc4)[nH]n3)CC2)c1`: the melting point lay in the range of 50 to 52 °C. With `CCc1cccc(C)c1NC(=O)CCBr`, the melting point lay within 149 to 150 °C. For `Cc1nccn1CC1CCc2c(c3ccccc3n2C)C1NO` (stereo not given), the melting point lay within 140 to 144 °C. The value for `N#Cc1cc(F)c(N(CCO)CCO)c(F)c1` was 63 to 65 °C. As for `C=CCCCOc1cc(OCCCCCCCC)ccc1C(=O)O`, the melting point fell in the range of 67 to 68 °C. For `CC(C)(C)c1ccc(C(=O)Nc2cn3cc(-c4ccccc4)ccc3n2)cc1`, the melting point is 252 to 253 °C. In the case of `Cc1ccc(C(=O)N[C@H]2CC[C@H](CCN3CCC(c4cccc5c4CCO5)CC3)CC2)cn1`, the melting point was determined as 202 °C. For the compound `Oc1ccc2oc(-c3cc(OCc4ccccc4)c(O)cc3-c3ccccc3)cc2c1`, the melting point is 186 to 187 °C.
